Where two headings read alike, the source gives them in different places. Numbered stars: 1 amine (or outer) side, 2 acyl side, 3 side chain; on linkers, the order of the positions; unused ones are H or OH. Bridge positions count the residues as written; N and C are the ends. Square brackets hold non-standard residues; d marks the D form. Peptide text beside a SMILES is read from it. I, II: the chains in the order shown. ξ: configuration not given here. Phe(4-COOH) = N[C@@H](Cc1ccc(C(=O)O)cc1)C(=O)O; Phe(4-tBu) = CC(C)(C)c1ccc(C[C@H](N)C(=O)O)cc1; 1Nal = N[C@@H](Cc1cccc2ccccc12)C(=O)O; Diglycolyl = O=C(COCC(=O)[*:2])[*:1]; NMeR = CN[C@@H](CCCNC(=N)N)C(=O)O; β3hE = N[C@@H](CCC(=O)O)CC(=O)O; Thr(3ξ) = CC(O)[C@H](N)C(=O)O; NMeK = CN[C@@H](CCCCN)C(=O)O; Pen = CC(C)(S)[C@H](N)C(=O)O
What was measured:
α4β7 [1] = biological target: T1, α4β7 (Mus musculus, UniProt P26011+Q00651); assay: α4β7 Cell Adhesion Assay (Mouse), TK1 cells; type: cell-based
T1 construct: host or cells: TK1 mouse T cells
Experimental: TK1 cells (ATCC # ATCC-CRL-2396) were cultured in RPMI 1640 with 2 mM L-glutamine adjusted to contain 1.5 g/L sodium bicarbonate, 4.5 g/L glucose, 10 mM HEPES, and 1.0 mM sodium pyruvate (ATCC#30-2001) and supplemented with 0.1 mM non-essential amino acids, (ATCC #30-2116) 0.05 mM 2-mercaptoethanol (Invitrogen #21985) and 10% serum (Fetal Bovine Serum, Invitrogen #16140-071), and Penicillin-Streptomycin (Invitrogen #15140-122) at 100 units of penicillin and 100 μg of streptomycin per ml. The cells were washed two times in DMEM medium (ATCC #30-2002) supplemented with 0.1% BSA, 10 mM HEPES pH 7 and 1 mM MnCl2. The cells were re-suspended in supplemented DMEM medium at a density of 4×10^6 cells/ml.
A Nunc MaxiSorp plate was coated with Recombinant human MAdCAM-1 Fc Chimera (R&D #6065-MC) at 200 ng per well in 100 μl per well in 1×PBS and incubated at 4° C. overnight. The solution was then removed by shaking, blocked with 250 ul per well PBS containing 1% BSA, and incubated at 37° C. for 1 hr. The solution was removed by shaking. DATK 32 (anti-mouse α4β7) and peptides were diluted by serial dilution in a final volume of 50 ul per well (2× concentration). To each well, 50 ul of cells (200,000 cells) are added and the plate is incubated at 37° C., 5% CO2 for 30-45 min to allow cell adhesion. The plate was manually washed three times with supplemented DMEM, 100 ul per wash. After the final wash, 100 ul/well of supplemented DMEM and […] of MTT reagent (ATTC cat#30-1010K) was added to each well. Wells were incubated at 37° C. with 5% CO2 for 2-3 hrs until purple precipitate was visible. 100 μl of Detergent Reagent (ATTC cat#30-1010K) was added to each well. The plate was then wrapped with Para film to prevent evaporation, and left overnight at room temperature in the dark. The plate was shaken for 5 min and the absorbance at 570 nm was measured. To calculate the dose response, the absorbance value of control wells not containing cells was subtracted from each test well.

α4β7 [2] = biological target: α4β7 (Homo sapiens, UniProt P13612+P26010); assay: PBMC Memory T Cell Adhesion Assay, adhesion to MAdCAM-1; type: cell-based
In short: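 Fresh human CD4+/CD45RO+ memory T cells in binding medium with 1 mM MnCl2 were preincubated with compound for 1.5 h at 37° C. on plates coated with Fc-captured MAdCAM-1 (400 ng/well). Adherent cells were read by fluorescence (Ex 485/Em 530). IC50 came from four-parameter nonlinear regression of RFU versus log concentration.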

[3] = Table 3-B, Potency (α4β7), range classes, read-out: α4β7 cell(MU) IC50
[4] = Table 3-B, range classes, read-out: PBMC IC50

Chain of α4β7 (Homo sapiens, UniProt P13612+P26010) (P13612 34-1032): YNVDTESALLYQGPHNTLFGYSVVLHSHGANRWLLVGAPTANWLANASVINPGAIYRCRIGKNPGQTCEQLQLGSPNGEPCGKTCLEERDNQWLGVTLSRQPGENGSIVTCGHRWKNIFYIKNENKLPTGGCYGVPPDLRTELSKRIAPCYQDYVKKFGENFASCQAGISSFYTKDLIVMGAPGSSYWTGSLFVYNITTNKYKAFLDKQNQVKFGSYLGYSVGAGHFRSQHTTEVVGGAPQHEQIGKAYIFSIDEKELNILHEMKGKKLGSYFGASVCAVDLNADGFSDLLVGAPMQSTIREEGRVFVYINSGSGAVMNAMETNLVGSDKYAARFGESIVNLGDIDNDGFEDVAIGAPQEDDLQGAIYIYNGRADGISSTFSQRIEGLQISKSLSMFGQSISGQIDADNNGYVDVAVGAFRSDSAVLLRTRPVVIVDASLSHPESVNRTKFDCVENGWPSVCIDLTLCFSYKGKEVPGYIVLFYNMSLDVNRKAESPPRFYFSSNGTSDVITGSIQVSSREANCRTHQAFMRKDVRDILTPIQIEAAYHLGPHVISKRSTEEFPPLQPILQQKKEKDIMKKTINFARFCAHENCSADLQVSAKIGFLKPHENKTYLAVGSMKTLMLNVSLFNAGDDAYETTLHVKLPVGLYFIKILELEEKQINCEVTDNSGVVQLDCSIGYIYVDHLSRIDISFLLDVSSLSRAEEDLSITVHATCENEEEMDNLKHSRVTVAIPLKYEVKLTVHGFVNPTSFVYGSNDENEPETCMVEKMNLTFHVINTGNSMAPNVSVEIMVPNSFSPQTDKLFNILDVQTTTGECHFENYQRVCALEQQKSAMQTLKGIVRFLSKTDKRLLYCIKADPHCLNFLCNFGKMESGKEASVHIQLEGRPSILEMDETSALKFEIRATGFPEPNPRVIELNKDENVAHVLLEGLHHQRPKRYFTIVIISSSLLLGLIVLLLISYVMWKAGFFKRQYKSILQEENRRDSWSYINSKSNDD
Chain of α4β7 (Homo sapiens, UniProt P13612+P26010) (P26010 20-798): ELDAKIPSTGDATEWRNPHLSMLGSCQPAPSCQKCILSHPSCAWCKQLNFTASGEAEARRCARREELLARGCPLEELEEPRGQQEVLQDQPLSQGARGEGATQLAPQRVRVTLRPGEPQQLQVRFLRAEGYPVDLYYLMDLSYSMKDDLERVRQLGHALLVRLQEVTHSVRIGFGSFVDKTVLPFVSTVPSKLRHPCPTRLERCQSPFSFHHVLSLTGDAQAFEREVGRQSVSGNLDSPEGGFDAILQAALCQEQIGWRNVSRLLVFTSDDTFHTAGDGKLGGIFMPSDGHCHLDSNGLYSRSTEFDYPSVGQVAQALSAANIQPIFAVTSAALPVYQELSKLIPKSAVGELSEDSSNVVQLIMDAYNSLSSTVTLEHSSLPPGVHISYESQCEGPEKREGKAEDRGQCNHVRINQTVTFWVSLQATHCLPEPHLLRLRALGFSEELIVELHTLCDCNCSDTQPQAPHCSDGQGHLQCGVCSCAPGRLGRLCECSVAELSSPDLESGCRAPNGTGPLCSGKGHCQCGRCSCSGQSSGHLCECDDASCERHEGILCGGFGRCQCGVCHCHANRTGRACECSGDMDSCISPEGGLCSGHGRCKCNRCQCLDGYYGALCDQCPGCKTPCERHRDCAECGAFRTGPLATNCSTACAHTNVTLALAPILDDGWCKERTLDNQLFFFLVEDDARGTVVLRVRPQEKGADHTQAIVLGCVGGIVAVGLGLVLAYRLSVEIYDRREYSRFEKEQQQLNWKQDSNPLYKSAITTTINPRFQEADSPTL
T1 sequence (Q00651 34-1039 limits assumed): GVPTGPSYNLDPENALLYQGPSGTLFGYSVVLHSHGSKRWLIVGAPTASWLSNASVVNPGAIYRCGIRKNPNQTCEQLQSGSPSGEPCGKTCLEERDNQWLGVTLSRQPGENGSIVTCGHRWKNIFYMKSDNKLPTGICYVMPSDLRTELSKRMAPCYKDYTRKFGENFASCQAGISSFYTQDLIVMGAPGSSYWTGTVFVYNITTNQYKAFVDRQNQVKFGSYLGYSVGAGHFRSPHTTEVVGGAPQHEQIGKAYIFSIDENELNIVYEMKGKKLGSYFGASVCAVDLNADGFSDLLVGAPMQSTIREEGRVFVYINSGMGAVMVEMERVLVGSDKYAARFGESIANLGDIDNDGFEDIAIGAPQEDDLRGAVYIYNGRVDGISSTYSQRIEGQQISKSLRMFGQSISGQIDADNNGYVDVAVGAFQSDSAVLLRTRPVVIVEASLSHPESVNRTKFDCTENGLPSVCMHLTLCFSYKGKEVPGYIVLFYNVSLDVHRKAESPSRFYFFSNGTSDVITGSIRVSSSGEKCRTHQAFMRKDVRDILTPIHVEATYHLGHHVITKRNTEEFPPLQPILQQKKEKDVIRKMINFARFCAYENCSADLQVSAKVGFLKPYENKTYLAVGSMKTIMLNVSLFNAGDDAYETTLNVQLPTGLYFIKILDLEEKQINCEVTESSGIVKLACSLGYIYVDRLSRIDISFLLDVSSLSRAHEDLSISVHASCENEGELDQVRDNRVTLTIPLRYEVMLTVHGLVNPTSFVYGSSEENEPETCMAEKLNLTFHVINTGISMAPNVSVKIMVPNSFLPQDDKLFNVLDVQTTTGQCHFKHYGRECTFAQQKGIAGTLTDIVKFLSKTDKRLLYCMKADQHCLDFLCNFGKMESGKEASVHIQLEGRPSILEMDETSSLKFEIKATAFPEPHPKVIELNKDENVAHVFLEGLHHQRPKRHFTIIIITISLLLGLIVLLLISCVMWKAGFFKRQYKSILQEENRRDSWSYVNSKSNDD
T1 sequence (P26011 20-806): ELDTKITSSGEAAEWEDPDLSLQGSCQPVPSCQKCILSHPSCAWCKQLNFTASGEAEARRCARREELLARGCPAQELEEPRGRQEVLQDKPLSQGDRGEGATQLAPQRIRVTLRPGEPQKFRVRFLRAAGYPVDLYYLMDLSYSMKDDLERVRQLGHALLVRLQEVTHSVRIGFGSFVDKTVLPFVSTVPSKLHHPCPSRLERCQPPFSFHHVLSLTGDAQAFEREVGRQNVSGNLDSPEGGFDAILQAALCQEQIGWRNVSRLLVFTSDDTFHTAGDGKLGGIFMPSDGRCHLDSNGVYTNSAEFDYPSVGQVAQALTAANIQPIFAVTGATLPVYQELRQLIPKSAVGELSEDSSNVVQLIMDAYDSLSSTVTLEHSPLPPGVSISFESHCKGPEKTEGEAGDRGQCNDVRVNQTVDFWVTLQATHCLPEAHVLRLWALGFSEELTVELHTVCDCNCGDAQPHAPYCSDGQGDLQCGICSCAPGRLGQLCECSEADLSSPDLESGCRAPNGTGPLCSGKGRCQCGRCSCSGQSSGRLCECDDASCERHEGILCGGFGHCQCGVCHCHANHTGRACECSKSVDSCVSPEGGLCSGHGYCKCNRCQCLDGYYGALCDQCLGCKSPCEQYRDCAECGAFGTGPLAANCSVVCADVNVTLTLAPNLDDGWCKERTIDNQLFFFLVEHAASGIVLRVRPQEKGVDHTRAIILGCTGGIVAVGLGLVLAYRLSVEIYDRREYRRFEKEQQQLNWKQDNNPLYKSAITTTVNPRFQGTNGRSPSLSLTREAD

Row | Compound | IC50 (α4β7 [1]; [3]) [nM] | IC50 (α4β7 [2]; [4]) [nM] | IC50 (α4β7 [1]; mouse T cell TK1, read-out: IC50 for blocking adhesion of TK1 cell line to MAdCAM-1) [nM] | IC50 (α4β7 [2]; average, cells isolated from 4 different human PBMC donors, read-out: IC50 (nM), memory T cells, Integrin α4β7, Ligand MAdCAM-1) [nM] | IC50 (α4β7 [2]; read-out: IC50 for α4β7 T cells) [nM]
1 | CC(=O)N[C@@H]1C(=O)N(C)[C@@H](CCCNC(=N)N)C(=O)N[C@@H](CO)C(=O)N[C@@H](CC(=O)O)C(=O)N[C@@H]([C@@H](C)O)C(=O)N[C@@H](CC(C)C)C(=O)N[C@H](C(=O)N[C@@H](Cc2ccc(C(C)(C)C)cc2)C(=O)N[C@@H](CCC(=O)O)CC(=O)O)C(C)(C)SSC1(C)C [compound 152] (Ac-[Pen][NMeR]SDTL[Pen][Phe(4-tBu)][β3hE]-OH; disulfide 1-7) | < 10 | 25 to 50 |  |  | 
2 | CC(=O)N[C@@H]1C(=O)N(C)[C@@H](CCCNC(=N)N)C(=O)N[C@@H](CO)C(=O)N[C@@H](CC(=O)O)C(=O)N[C@@H]([C@@H](C)O)C(=O)N[C@@H](CC(C)C)C(=O)N[C@H](C(=O)N[C@@H](Cc2ccc(C(=O)O)cc2)C(=O)N[C@@H](CCC(=O)O)CC(=O)N[C@H](CCCCNC(=O)COCC(=O)NCCCC[C@@H](NC(=O)C[C@H](CCC(=O)O)NC(=O)[C@H](Cc2ccc(C(=O)O)cc2)NC(=O)[C@H]2NC(=O)[C@H](CC(C)C)NC(=O)[C@H]([C@@H](C)O)NC(=O)[C@H](CC(=O)O)NC(=O)[C@H](CO)NC(=O)[C@H](CCCNC(=N)N)N(C)C(=O)[C@@H](NC(C)=O)C(C)(C)SSC2(C)C)C(N)=O)C(N)=O)C(C)(C)SSC1(C)C [compound 130] (I: Ac-[Pen][NMeR]SDTL[Pen][Phe(4-COOH)][β3hE][dK]-NH2 / II: Ac-[Pen][NMeR]SDTL[Pen][Phe(4-COOH)][β3hE][dK]-NH2; disulfide I:1-I:7, II:1-II:7; linker I:10-II:10 via Diglycolyl) |  | < 10 |  |  | 
3 | CC(=O)N[C@@H]1C(=O)N(C)[C@@H](CCCNC(=N)N)C(=O)N[C@@H](CO)C(=O)N[C@@H](CC(=O)O)C(=O)N[C@@H]([C@@H](C)O)C(=O)N[C@@H](CC(C)C)C(=O)N[C@H](C(=O)N[C@@H](Cc2c[nH]c3ccccc23)C(=O)N[C@H](CCC(=O)O)C(=O)N[C@H](CCCCNC(=O)COCC(=O)NCCCC[C@@H](NC(=O)[C@@H](CCC(=O)O)NC(=O)[C@H](Cc2c[nH]c3ccccc23)NC(=O)[C@H]2NC(=O)[C@H](CC(C)C)NC(=O)[C@H]([C@@H](C)O)NC(=O)[C@H](CC(=O)O)NC(=O)[C@H](CO)NC(=O)[C@H](CCCNC(=N)N)N(C)C(=O)[C@@H](NC(C)=O)C(C)(C)SSC2(C)C)C(N)=O)C(N)=O)C(C)(C)SSC1(C)C [compound 68] (I: Ac-[Pen][NMeR]SDTL[Pen]W[dE][dK]-NH2 / II: Ac-[Pen][NMeR]SDTL[Pen]W[dE][dK]-NH2; disulfide I:1-I:7, II:1-II:7; linker I:10-II:10 via Diglycolyl) | < 10 | 100 to 500 |  |  | 
4 | CC(=O)N[C@@H]1C(=O)N(C)[C@@H](CCCNC(=N)N)C(=O)N[C@@H](CO)C(=O)N[C@@H](CC(=O)O)C(=O)N[C@@H]([C@@H](C)O)C(=O)N[C@@H](CC(C)C)C(=O)N[C@H](C(=O)N[C@@H](Cc2cccc3ccccc23)C(=O)N[C@@H](CCC(=O)O)CC(=O)N(C)[C@@H](CCCCNC(=O)COCC(=O)NCCCC[C@@H](C(N)=O)N(C)C(=O)C[C@H](CCC(=O)O)NC(=O)[C@H](Cc2cccc3ccccc23)NC(=O)[C@H]2NC(=O)[C@H](CC(C)C)NC(=O)[C@H]([C@@H](C)O)NC(=O)[C@H](CC(=O)O)NC(=O)[C@H](CO)NC(=O)[C@H](CCCNC(=N)N)N(C)C(=O)[C@@H](NC(C)=O)C(C)(C)SSC2(C)C)C(N)=O)C(C)(C)SSC1(C)C [compound 142] (I: Ac-[Pen][NMeR]SDTL[Pen][1Nal][β3hE][NMeK]-NH2 / II: Ac-[Pen][NMeR]SDTL[Pen][1Nal][β3hE][NMeK]-NH2; disulfide I:1-I:7, II:1-II:7; linker I:10-II:10 via Diglycolyl) |  | 50 to 100 |  |  | 
5 | CC(=O)N[C@@H]1C(=O)N(C)[C@@H](CCCNC(=N)N)C(=O)N[C@@H](CO)C(=O)N[C@@H](CC(=O)O)C(=O)N[C@@H]([C@@H](C)O)C(=O)N[C@@H](CC(C)C)C(=O)N[C@H](C(=O)N[C@@H](Cc2ccc(C(=O)O)cc2)C(=O)N[C@@H](CCC(=O)O)C(=O)N(C)[C@@H](CCCCNC(=O)COCC(=O)NCCCC[C@@H](C(N)=O)N(C)C(=O)[C@H](CCC(=O)O)NC(=O)[C@H](Cc2ccc(C(=O)O)cc2)NC(=O)[C@H]2NC(=O)[C@H](CC(C)C)NC(=O)[C@H]([C@@H](C)O)NC(=O)[C@H](CC(=O)O)NC(=O)[C@H](CO)NC(=O)[C@H](CCCNC(=N)N)N(C)C(=O)[C@@H](NC(C)=O)C(C)(C)SSC2(C)C)C(N)=O)C(C)(C)SSC1(C)C [compound 147] (I: Ac-[Pen][NMeR]SDTL[Pen][Phe(4-COOH)]E[NMeK]-NH2 / II: Ac-[Pen][NMeR]SDTL[Pen][Phe(4-COOH)]E[NMeK]-NH2; disulfide I:1-I:7, II:1-II:7; linker I:10-II:10 via Diglycolyl) | < 10 | < 10 |  |  | 
6 | CC(=O)N[C@@H]1C(=O)N(C)[C@@H](CCCNC(=N)N)C(=O)N[C@@H](CO)C(=O)N[C@@H](CC(=O)O)C(=O)N[C@@H](C(C)O)C(=O)N[C@@H](CC(C)C)C(=O)N[C@H](C(=O)N[C@@H](Cc2ccc(C(C)(C)C)cc2)C(=O)N[C@@H](CCC(=O)O)CC(=O)N[C@H](CCCCNC(=O)COCC(=O)NCCCC[C@@H](NC(=O)C[C@H](CCC(=O)O)NC(=O)[C@H](Cc2ccc(C(C)(C)C)cc2)NC(=O)[C@H]2NC(=O)[C@H](CC(C)C)NC(=O)[C@H](C(C)O)NC(=O)[C@H](CC(=O)O)NC(=O)[C@H](CO)NC(=O)[C@H](CCCNC(=N)N)N(C)C(=O)[C@@H](NC(C)=O)C(C)(C)SSC2(C)C)C(N)=O)C(N)=O)C(C)(C)SSC1(C)C (stereo partly drawn) [Peptide X, [Ac-Pen-(N-Me-Arg)-Ser-Asp-Thr-Leu-Pen-(Phe(4-tBu))-(β-homoGlu)-(D-Lys)]2-DIG] (I: Ac-[Pen][NMeR]SD[Thr(3ξ)]L[Pen][Phe(4-tBu)][β3hE][dK]-NH2 / II: Ac-[Pen][NMeR]SD[Thr(3ξ)]L[Pen][Phe(4-tBu)][β3hE][dK]-NH2; disulfide I:1-I:7, II:1-II:7; linker I:10-II:10 via Diglycolyl) |  |  | 0.5 | 1.3 | 1
7 | CC(=O)N[C@@H]1C(=O)N(C)[C@@H](CCCNC(=N)N)C(=O)N[C@@H](CO)C(=O)N[C@@H](CC(=O)O)C(=O)N[C@@H]([C@@H](C)O)C(=O)N[C@@H](CC(C)C)C(=O)N[C@H](C(=O)N[C@@H](Cc2ccc(C(C)(C)C)cc2)C(=O)N[C@@H](CCC(=O)O)CC(=O)N[C@H](CCCCNC(=O)COCC(=O)NCCCC[C@@H](NC(=O)C[C@H](CCC(=O)O)NC(=O)[C@H](Cc2ccc(C(C)(C)C)cc2)NC(=O)[C@H]2NC(=O)[C@H](CC(C)C)NC(=O)[C@H]([C@@H](C)O)NC(=O)[C@H](CC(=O)O)NC(=O)[C@H](CO)NC(=O)[C@H](CCCNC(=N)N)N(C)C(=O)[C@@H](NC(C)=O)C(C)(C)SSC2(C)C)C(N)=O)C(N)=O)C(C)(C)SSC1(C)C [compound 132] (I: Ac-[Pen][NMeR]SDTL[Pen][Phe(4-tBu)][β3hE][dK]-NH2 / II: Ac-[Pen][NMeR]SDTL[Pen][Phe(4-tBu)][β3hE][dK]-NH2; disulfide I:1-I:7, II:1-II:7; linker I:10-II:10 via Diglycolyl) | < 10 | < 10 |  |  | 
8 | CC(=O)N[C@@H]1C(=O)N(C)[C@@H](CCCNC(=N)N)C(=O)N[C@@H](CO)C(=O)N[C@@H](CC(=O)O)C(=O)N[C@@H]([C@@H](C)O)C(=O)N[C@@H](CC(C)C)C(=O)N[C@H](C(=O)N[C@@H](Cc2ccc(C(C)(C)C)cc2)C(=O)N[C@@H](CCC(=O)O)CC(=O)N(C)[C@@H](CCCCNC(=O)COCC(=O)NCCCC[C@@H](C(N)=O)N(C)C(=O)C[C@H](CCC(=O)O)NC(=O)[C@H](Cc2ccc(C(C)(C)C)cc2)NC(=O)[C@H]2NC(=O)[C@H](CC(C)C)NC(=O)[C@H]([C@@H](C)O)NC(=O)[C@H](CC(=O)O)NC(=O)[C@H](CO)NC(=O)[C@H](CCCNC(=N)N)N(C)C(=O)[C@@H](NC(C)=O)C(C)(C)SSC2(C)C)C(N)=O)C(C)(C)SSC1(C)C [compound 149] (I: Ac-[Pen][NMeR]SDTL[Pen][Phe(4-tBu)][β3hE][NMeK]-NH2 / II: Ac-[Pen][NMeR]SDTL[Pen][Phe(4-tBu)][β3hE][NMeK]-NH2; disulfide I:1-I:7, II:1-II:7; linker I:10-II:10 via Diglycolyl) | < 10 | < 10 |  |  | 
